Results published in ChEMBL document CHEMBL5149962, “Targeting KRAS mutant cancers by preventing signaling transduction in the MAPK pathway” (Eur J Med Chem, 2021).
Where a SMILES comes first, the peptide text is derived from it. Bridges are numbered along the chain shown (N, C = ends). [ ]: non-standard residue; d: D form. S5 = C=CCCC[C@](C)(N)C(=O)O

What was measured:
GTPase KRas [1] = target: GTPase KRas (Homo sapiens, UniProt P01116, G12V); test: Binding affinity to GDP-bound KRAS G12V RAS mutant (unknown origin)
GTPase HRas = GTPase HRas (Homo sapiens, UniProt P01112); test: Inhibition of human p21 h-RAS assessed as reduction in C-Cdc25 stimulated nucleotide exchange by luminescence spectrometer based analysis
GTPase KRas [2] = target: GTPase KRas (Homo sapiens, UniProt P01116); test: Binding affinity to KRAS (unknown origin) assessed as dissociation constant
[3] = Lipophilicity, logP of the compound; assay type: physicochemical; conditions: octanol/water
HCT-116 = test: Antiproliferative activity against human HCT-116 cells harboring KRAS G13D mutant assessed as cell growth inhibition measured after 96 hrs by MTT assay; assay type: functional
[4] = Inhibition of human N-terminal His-tagged recombinant wild-type KRAS (1 to 156 residues) expressed in Escherichia coli BL21 (DE3)/SAH-SOS1A by fluorescence based polarization assay
GTPase KRas [5] = target: GTPase KRas (Homo sapiens, UniProt P01116, G12C); test: Inhibition of KRAS G12C mutant (unknown origin)
SW480 = test: Antiproliferative activity against human SW480 cells assessed as cell growth inhibition by CCK-8 assay relative to control; assay type: functional
[6] = Binding affinity to recombinant human KRAS (1 to 169 residues) expressed in Escherichia coli - recombinant human SOS1 (560 to 1049 residues) expressed in Escherichia coli assessed as dissociation constant

Chain of GTPase KRas (Homo sapiens, UniProt P01116, G12V) (P01116 whole entry G12V): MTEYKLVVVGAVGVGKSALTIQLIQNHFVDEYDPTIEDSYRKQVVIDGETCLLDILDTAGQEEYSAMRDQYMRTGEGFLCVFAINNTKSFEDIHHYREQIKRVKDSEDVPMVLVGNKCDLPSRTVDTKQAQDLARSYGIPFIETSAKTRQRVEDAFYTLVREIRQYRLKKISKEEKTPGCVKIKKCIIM
Chain of GTPase KRas (Homo sapiens, UniProt P01116) (P01116 whole entry): as the sequence (P01116 whole entry G12V) above, with V12G counted along it
Chain of GTPase HRas (P01112 whole entry): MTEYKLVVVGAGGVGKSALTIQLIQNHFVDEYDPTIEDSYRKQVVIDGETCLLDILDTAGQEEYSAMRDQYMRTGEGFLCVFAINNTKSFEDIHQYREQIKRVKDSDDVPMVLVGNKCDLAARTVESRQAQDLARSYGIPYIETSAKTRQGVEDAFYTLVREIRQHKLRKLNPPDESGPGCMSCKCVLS
Chain of GTPase KRas (Homo sapiens, UniProt P01116, G12C) (P01116 whole entry G12C): as the sequence (P01116 whole entry G12V) above, with V12C counted along it

SMILES: O=S(=O)(c1ccc(NO)cc1)N(CCOc1ccc2ccccc2c1)[C@@H]1O[C@H](CO)[C@@H](O)[C@H](O)[C@H]1O
- IC50 (GTPase KRas [1]): 0.7 µM

SMILES: O=S(=O)(NCCOc1ccc2ccccc2c1)c1ccc(NO)cc1
- IC50 (GTPase KRas [1]): 0.5 µM
- IC50 (GTPase HRas): 56 µM

SMILES: Cc1[nH]c2cc(Cl)cc(Cl)c2c1CCN
- Kd (GTPase KRas [2]): 1100 µM

SMILES: C=C1CC[C@@H]2[C@]3(C)COC(c4cccc(Br)c4)O[C@@H]3CC[C@@]2(C)[C@@H]1C/C=C1/C(=O)OC[C@H]1O (stereo partly specified)
- logP [3]: 2.6

SMILES: C=C1CC[C@@H]2[C@]3(C)COC(c4ccc(F)c(Br)c4)O[C@@H]3CC[C@@]2(C)[C@@H]1C/C=C1/C(=O)OC[C@H]1O (stereo partly specified)
- logP [3]: 2.6
- GI50 (HCT-116): 4 µM

SMILES: CC[C@H](C)[C@H](NC(=O)CNC(=O)[C@H](Cc1ccccc1)NC(=O)[C@@H](N)Cc1ccccc1)C(=O)N[C@@H](Cc1ccc(O)cc1)C(=O)N[C@@H](CC(C)C)C(=O)N[C@H](C(=O)N[C@@H](CC(N)=O)C(=O)N[C@@]1(C)CCC/C=C\CCC[C@@](C)(C(=O)N[C@@H](CCC(=O)O)C(=O)NCC(=O)N[C@@H](CC(N)=O)C(=O)O)NC(=O)[C@H]([C@@H](C)O)NC(=O)[C@H](CCCCN)NC(=O)[C@H](CC(C)C)NC1=O)[C@@H](C)O
- EC50 [4]: 0.1 µM

SMILES: Nc1nc2c(ncn2CCN(CCOc2ccc3ccccc3c2)S(=O)(=O)c2ccc(NO)cc2)c(=O)[nH]1
- IC50 (GTPase KRas [1]): 0.5 µM

SMILES: C=CC(=O)N1CCN(c2nc(NCCC(=O)N(C)C)nc3c(F)c(-c4cc(O)cc5ccccc45)c(Cl)cc23)CC1
- IC50 (GTPase KRas [5]): 0.726 µM

SMILES: C=C1CC[C@@H]2[C@]3(C)COC(c4ccccc4Br)O[C@@H]3CC[C@@]2(C)[C@@H]1C/C=C1/C(=O)OC[C@H]1O (stereo partly specified)
- logP [3]: 2.6
- GI50 (HCT-116): 3.1 µM

SMILES: CC[C@H](C)[C@H](NC(=O)CNC(=O)[C@H](Cc1ccccc1)NC(=O)[C@@H](N)Cc1ccccc1)C(=O)N[C@@]1(C)CCC/C=C\CCC[C@@](C)(C(=O)N[C@@H](CC(C)C)C(=O)N[C@@H](CCCCN)C(=O)N[C@H](C(=O)N[C@@H](CCC(=O)O)C(=O)N[C@@H](CCC(=O)O)C(=O)NCC(=O)N[C@@H](CC(N)=O)C(=O)O)[C@@H](C)O)NC(=O)[C@H](CC(N)=O)NC(=O)[C@H]([C@@H](C)O)NC(=O)[C@H](CC(C)C)NC1=O
- EC50 [4]: 0.1 µM

SMILES: [O-][S+](NC[C@@H]1CC2O[C@H](OCc3ccccc3)[C@@H](OCc3ccccc3)C2O1)c1ccc(NO)cc1 (stereo partly specified)
- IC50 (GTPase HRas): 35.5 µM

SMILES: CC[C@H](C)[C@H](NC(=O)[C@]1(C)CCC/C=C\CCC[C@](C)(NC(=O)CNC(=O)[C@H](Cc2ccccc2)NC(=O)[C@@H](N)Cc2ccccc2)C(=O)N[C@@H](Cc2ccc(O)cc2)C(=O)N[C@@H](CC(C)C)C(=O)N[C@@H]([C@@H](C)O)C(=O)N1)C(=O)N[C@@H](CC(C)C)C(=O)N[C@@H](CCCCN)C(=O)N[C@H](C(=O)N[C@@H](CCC(=O)O)C(=O)N[C@@H](CCC(=O)O)C(=O)NCC(=O)N[C@@H](CC(N)=O)C(=O)O)[C@@H](C)O
- EC50 [4]: 0.1 µM

SMILES: Cc1ccc(NC(=S)NNc2c([N+](=O)[O-])cc(C(F)(F)F)cc2[N+](=O)[O-])cc1Cl
- inhibition (INH) (SW480): 66.3%

SMILES: CC[C@H](C)[C@@H]1NC(=O)CNC(=O)[C@@](C)(NC(=O)[C@@H](N)Cc2ccccc2)CCC/C=C\CCC[C@@](C)(C(=O)N[C@H](C(=O)N[C@@H](C)C(=O)N[C@H](C(=O)N[C@@H](CC(C)C)C(=O)N[C@@H](CCCCN)C(=O)N[C@H](C(=O)N[C@@H](CCC(=O)O)C(=O)N[C@@H](CCC(=O)O)C(=O)NCC(=O)N[C@@H](CC(N)=O)C(=O)O)[C@@H](C)O)[C@@H](C)CC)[C@@H](C)O)NC(=O)[C@H](Cc2ccc(O)cc2)NC1=O (H-F[S5]GIY[S5]TAILKTEEGN-OH; staple (Z) 2-6)
- EC50 [4]: 0.1 µM

SMILES: C=C1CC[C@@H]2[C@](C)(CO)[C@H](O)CC[C@@]2(C)[C@@H]1C/C=C1/C(=O)OC[C@H]1O [ANDROGRAPHOLIDE]
- GI50 (HCT-116): 4.5 µM

SMILES: CNCc1ccccc1-c1csc([C@@H](C)Nc2nc(C)nc3cc(OC)c(OC)cc23)c1 [BAY-293]
- Kd [6]: 0.036 µM

SMILES: c1ccc2[nH]cnc2c1 [BENZIMIDAZOLE]
- Kd (GTPase KRas [2]): 1500 µM

SMILES: CNC(=O)c1cc(Oc2ccc(NC(=O)Nc3ccc(Cl)c(C(F)(F)F)c3)cc2)ccn1 [SORAFENIB]
- inhibition (INH) (SW480): 83.8%
